From PubChem BioAssay AID256 (DTP/NCI, 2004) come the findings set out here.

This assay concerns CD2F1 mice, L1210 leukemia ip, survival T/C. In words: NCI In Vivo Anticancer Drug Screen. Data for tumor model L1210 Leukemia (intraperitoneal) in CD2F1 (CDF1) mice. As to conditions: endpoint: mean survival time, higher = longer survival. In outline: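 Compound-dosed mice with transplantable tumor versus matched vehicle controls; endpoint ratio T/C reported.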
The mark [1] stands for this setting: dose: 12.5 mg/kg/injection, schedule: Q04DX002 (ip), vehicle: saline.
Setting [2] is: dose: 25.0 mg/kg/injection, schedule: Q04DX002 (ip), vehicle: saline.
Setting [3] is: dose: 50.0 mg/kg/injection, schedule: Q01DX009 (ip), vehicle: saline with Tween-80.
[4] abbreviates: dose: 50.0 mg/kg/injection, schedule: Q04DX002 (ip), vehicle: saline.
[5] abbreviates: dose: 200.0 mg/kg/injection, schedule: Q04DX002 (ip), vehicle: saline with Tween-80.
Setting [6] is: dose: 100.0 mg/kg/injection, schedule: Q04DX003 (ip), vehicle: saline with Tween-80.
Where [7] appears, read: dose: 200.0 mg/kg/injection, schedule: Q04DX003 (ip), vehicle: saline with Tween-80.
Where [8] appears, read: dose: 400.0 mg/kg/injection, schedule: Q04DX003 (ip), vehicle: saline with Tween-80.
[9] abbreviates: dose: 25.0 mg/kg/injection, schedule: Q01DX009 (ip), vehicle: water.
[10] abbreviates: dose: 50.0 mg/kg/injection, schedule: Q01DX009 (ip), vehicle: water.
Setting [11] is: dose: 100.0 mg/kg/injection, schedule: Q01DX009 (ip), vehicle: water.
The mark [12] stands for this setting: dose: 200.0 mg/kg/injection, schedule: Q01DX009 (ip), vehicle: water.
[13] abbreviates: dose: 100.0 mg/kg/injection, schedule: Q01DX001 (ip), vehicle: saline with Tween-80.
The mark [14] stands for this setting: dose: 200.0 mg/kg/injection, schedule: Q01DX001 (ip), vehicle: saline with Tween-80.
Where [15] appears, read: dose: 400.0 mg/kg/injection, schedule: Q01DX001 (ip), vehicle: saline with Tween-80.
The mark [16] stands for this setting: dose: 200.0 mg/kg/injection, schedule: Q01DX001 (ip), vehicle: Klucel (hydroxypropylcellulose) (HPC).
Setting [17] is: dose: 400.0 mg/kg/injection, schedule: Q01DX001 (ip), vehicle: Klucel (hydroxypropylcellulose) (HPC).
Where [18] appears, read: dose: 100.0 mg/kg/injection, schedule: Q01DX009 (ip), vehicle: saline with Tween-80.
[19] abbreviates: dose: 200.0 mg/kg/injection, schedule: Q01DX009 (ip), vehicle: saline with Tween-80.

Structures are written as SMILES. “And” between values parts separate entries of the source, which are not always exact repeats. Identical values can stand only once. Toxic doses and inconclusive results are not listed.

Consider `CCCCC(/C=N/N=C/C(CC)CCCC)CC` (configuration not stated), for which the T/C is 92 % of control (dose: 6.25 mg/kg/injection, schedule: Q01DX005 (ip), vehicle: saline with Tween-80); 91 % of control (dose: 6.25 mg/kg/injection, schedule: Q01DX009 (ip), vehicle: saline with Tween-80); 98 % of control (dose: 6.25 mg/kg/injection, schedule: Q04DX002 (ip), vehicle: saline); 92 % of control (dose: 12.5 mg/kg/injection, schedule: Q01DX005 (ip), vehicle: saline with Tween-80); 91 % of control (dose: 12.5 mg/kg/injection, schedule: Q01DX009 (ip), vehicle: saline with Tween-80); 103 % of control under setting [1]. Besides, the T/C (dose: 25.0 mg/kg/injection, schedule: Q01DX005 (ip), vehicle: saline with Tween-80) was 89 % of control; the T/C (dose: 25.0 mg/kg/injection, schedule: Q01DX009 (ip), vehicle: saline with Tween-80) is 95 % of control; the T/C under setting [2] is 103 % of control; the T/C (dose: 50.0 mg/kg/injection, schedule: Q01DX005 (ip), vehicle: saline with Tween-80) was 92 % of control; the T/C under setting [3] was 91 % of control; the T/C (dose: 50.0 mg/kg/injection, schedule: Q04DX002 (ip), vehicle: saline with Tween-80) was 95 % of control. The T/C runs as follows: under setting [4], 106 % of control; under setting [5], 88 % of control.

On to `COC(=O)C1CCOC1=O` (configuration not stated), for which the T/C runs as follows: (dose: 100.0 mg/kg/injection, schedule: Q04DX002 (ip), vehicle: saline) 98 % of control; (dose: 200.0 mg/kg/injection, schedule: Q04DX002 (ip), vehicle: saline) 98 % of control; (dose: 400.0 mg/kg/injection, schedule: Q04DX002 (ip), vehicle: saline) 102 % of control.

`OCC(Cl)(Cl)Cl`: the T/C is, setting by setting: under setting [6], 93 % of control; under setting [7], 97 % of control; under setting [8], 101 % of control.

Take `CCOC(=O)C(C)C(=O)C(C)N1C(=O)c2ccccc2C1=O` (configuration not stated): the T/C was 95 % of control (dose: 12.5 mg/kg/injection, schedule: Q01DX009 (ip), vehicle: water); 95 % of control under setting [9]; 95 % of control under setting [10]; 100 % of control under setting [11]; 96 % of control under setting [12].

On to `Cc1c(N)c(=O)n(-c2ccccc2)n1C`, for which the T/C is, setting by setting: (dose: 100.0 mg/kg/injection, schedule: Q04DX003 (ip), vehicle: saline) 97 % of control; (dose: 200.0 mg/kg/injection, schedule: Q04DX003 (ip), vehicle: saline) 103 % of control; (dose: 400.0 mg/kg/injection, schedule: Q04DX003 (ip), vehicle: saline) 101 % of control.

Consider `Cc1c(F)cccc1NC(=O)OC(C)C`, for which the T/C is 97 % of control (dose: 100.0 mg/kg/injection, schedule: Q04DX002 (ip), vehicle: saline with Tween-80); 102 % of control under setting [5]; 94 % of control (dose: 400.0 mg/kg/injection, schedule: Q04DX002 (ip), vehicle: saline with Tween-80).

For `CN(C)/C=C1\NC(=S)NC1=O`, the T/C is, setting by setting: under setting [13], 95 % of control; under setting [14], 91 % of control; under setting [15], 91 % of control.

For the molecule `O=C(N/N=C/c1ccc2c(c1)CCC2)c1ccccc1[N+](=O)[O-]`, the T/C runs as follows: (dose: 100.0 mg/kg/injection, schedule: Q01DX001 (ip), vehicle: Klucel (hydroxypropylcellulose) (HPC)) 95 % of control; under setting [16], 94 % of control; under setting [7], 89 % of control; under setting [17], 97 % of control; under setting [8], 96 % of control.

`CC1(C)OC2COC(c3cc(C(N)=O)n[nH]3)C2O1` (configuration not stated): the T/C is 106 % of control under setting [13], 101 % of control under setting [14] and 105 % of control under setting [15].

As for `O=C1NC(=O)C(c2ccccc2)(C2CCC2)N1` (configuration not stated), the T/C by setting is: under setting [6], 95 % of control; under setting [8], 88 % of control.

Take `NS(=O)(=O)c1cc([N+](=O)[O-])ccc1Cl`: the T/C under setting [18] is 91 % of control and the T/C under setting [19] was 98 % of control.

For the molecule `COCC1C(N)C(C)NC(Cl)C1C#N` (configuration not stated), the T/C reads like this: under setting [18], 97 % of control; under setting [6], 95 % of control; under setting [19], 97 % of control; under setting [7], 100 % of control; under setting [8], 100 % of control.

Turning to `N#CC1(NC(=O)N(CCCl)N=O)CCCCC1`, the T/C by setting is: (dose: 6.25 mg/kg/injection, schedule: Q01DX001 (ip), vehicle: distilled water + Tween-80) 119 % of control and 108 % of control; (dose: 25.0 mg/kg/injection, schedule: Q01DX001 (ip), vehicle: distilled water + Tween-80) 150 % of control; (dose: 50.0 mg/kg/injection, schedule: Q01DX001 (ip), vehicle: distilled water + Tween-80) 172 % of control and 258 % of control.

As for `O=C(Oc1ccccc1Cl)c1ccccc1`, the T/C is, setting by setting: under setting [18], 100 % of control; under setting [6], 105 % of control; under setting [19], 98 % of control; under setting [7], 100 % of control; (dose: 400.0 mg/kg/injection, schedule: Q01DX009 (ip), vehicle: saline with Tween-80) 108 % of control; under setting [8], 111 % of control.

Take `CCOC(=O)C(NC(N)=O)C(=O)OCC`: the T/C by setting is: under setting [9], 91 % of control; under setting [10], 91 % of control; under setting [11], 93 % of control; under setting [12], 89 % of control; (dose: 400.0 mg/kg/injection, schedule: Q01DX009 (ip), vehicle: water) 93 % of control.

For `O=S(=O)(O)SCC1=NCCCCN1`, the T/C under setting [6] is 101 % of control.

In the case of `OCC1OC([Se])C(O)C(O)C1O.[CH3][Sb][CH3]` (configuration not stated), under “dose: 50.0 mg/kg/injection, schedule: Q01DX009 (ip), vehicle: Klucel (hydroxypropylcellulose) (HPC)”, the T/C was 88 % of control.

Consider `CC1OC(n2cc(C(N)=O)c3c(N)ncnc32)C(O)C1O` (configuration not stated), for which the T/C reads like this: (dose: 12.5 mg/kg/injection, schedule: Q01DX009 (ip), vehicle: saline) 103 % of control; (dose: 25.0 mg/kg/injection, schedule: Q01DX009 (ip), vehicle: saline) 103 % of control; (dose: 50.0 mg/kg/injection, schedule: Q01DX009 (ip), vehicle: saline) 103 % of control; (dose: 100.0 mg/kg/injection, schedule: Q01DX009 (ip), vehicle: saline) 105 % of control.

For `COc1cc(OC)c(NC(=O)Nc2ccc(C(=O)O)cc2)cc1Cl`, the T/C runs as follows: under setting [3], 89 % of control; under setting [18], 100 % of control; under setting [19], 96 % of control.

Consider `CSC(SC)=C(C#N)C#N`, for which the T/C runs as follows: under setting [1], 102 % of control; under setting [2], 94 % of control; under setting [4], 92 % of control.

With `C[Si](C)(C)CS(=O)[O-].[C-]#[O+].[C-]#[O+].[Fe+6].[c-]1[c-][c-][cH-][c-]1`, the T/C under setting [1] was 105 % of control, the T/C under setting [2] is 94 % of control and the T/C under setting [4] was 87 % of control.

Regarding `O=C(CC(=O)OCc1ccc([N+](=O)[O-])cc1)OCc1ccc([N+](=O)[O-])cc1`, the T/C under setting [16] was 96 % of control and the T/C under setting [17] was 93 % of control.

Regarding `COC(=O)c1cc2ccccc2[nH]c1=O`, the T/C was 97 % of control (dose: 75.0 mg/kg/injection, schedule: Q01DX001 (ip), vehicle: other); 96 % of control (dose: 150.0 mg/kg/injection, schedule: Q01DX001 (ip), vehicle: other); 97 % of control (dose: 300.0 mg/kg/injection, schedule: Q01DX001 (ip), vehicle: other).

Turning to `Cc1ccc(S(=O)(=O)OCC(OS(=O)(=O)c2ccc(C)cc2)C(O)C(O)C(O)CO)cc1` (configuration not stated), the T/C is, setting by setting: under setting [6], 97 % of control; under setting [7], 91 % of control; under setting [8], 91 % of control.

As to `CSc1nc2c(c(=O)[nH]1)c1c(N)ncnc1n2C1OC(CO)C(O)C1O` (configuration not stated), the T/C (dose: 25.0 mg/kg/injection, schedule: Q01DX005 (ip), vehicle: water) was 88 % of control; the T/C (dose: 50.0 mg/kg/injection, schedule: Q01DX005 (ip), vehicle: water) was 94 % of control; the T/C (dose: 100.0 mg/kg/injection, schedule: Q01DX005 (ip), vehicle: water) was 88 % of control; the T/C (dose: 200.0 mg/kg/injection, schedule: Q01DX005 (ip), vehicle: water) was 100 % of control.
